These results are taken from US20110086853A1, “Therapeutic Compounds” (priority 2009, published 2011).

T1 sequence (P21554 whole entry): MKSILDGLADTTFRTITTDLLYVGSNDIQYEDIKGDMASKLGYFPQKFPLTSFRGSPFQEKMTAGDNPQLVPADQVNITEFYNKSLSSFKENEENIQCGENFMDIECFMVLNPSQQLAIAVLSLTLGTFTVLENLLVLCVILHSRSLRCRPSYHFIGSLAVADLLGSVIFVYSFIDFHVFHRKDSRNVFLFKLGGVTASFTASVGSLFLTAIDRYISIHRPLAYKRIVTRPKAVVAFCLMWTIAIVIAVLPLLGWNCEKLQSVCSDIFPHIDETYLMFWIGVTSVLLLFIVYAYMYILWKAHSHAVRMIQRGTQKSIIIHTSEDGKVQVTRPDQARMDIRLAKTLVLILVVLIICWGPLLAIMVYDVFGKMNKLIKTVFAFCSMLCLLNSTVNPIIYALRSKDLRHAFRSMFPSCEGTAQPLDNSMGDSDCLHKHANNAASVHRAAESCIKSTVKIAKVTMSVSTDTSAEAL

This assay has as its target T1, Human CB1 receptor (Homo sapiens, UniProt P21554).
T1 construct: purchased Receptor Biology
Briefly: hCB1 GTPγS binding. To be noted: maximal stimulated binding determined with 10 μM Win 55,212-2. It counts as biochemical. As for the experimental part:
hCB1 and hCB2 GTPγS Binding
Human CB1 receptor from Receptor Biology (hCB1) or human CB2 receptor membranes (BioSignal) are thawed at 37° C., passed 3 times through a 25-gauge blunt-end needle and diluted in the GTPγS binding buffer (50 mM Hepes, 20 mM NaOH, 100 mM NaCl, 1 mM EDTA, 5 mM MgCl2, pH 7.4, 0.1% BSA). The EC50 and Emax of the compounds of the invention are evaluated from 10-point dose-response curves done in 300 μl with the appropriate amount of membrane protein and 100000-130000 dpm of GTPg^35S per well (0.11-0.14 nM). The basal and maximal stimulated binding is determined in absence and presence of 1 μM (hCB2) or 10 μM (hCB1) Win 55, 212-2 respectively. The membranes are pre-incubated for 5 minutes with 56.25 μM (hCB2) or 112.5 μM (hCB1) GDP prior to distribution in plates (15 μM (hCB2) or 30 μM (hCB1) GDP final). The plates are vortexed and incubated for 60 minutes at room temperature, filtered on Unifilters GF/B (presoaked in water) with the Tomtec or Packard harvester using 3 ml of wash buffer (50 mM Tris, 5 mM MgCl2, 50 mM NaCl, pH 7.0). The filters are dried for 1 hour at 55° C. The radioactivity (cpm) is counted in a TopCount (Packard) after adding 65 μl/well of MS-20 scintillation liquid. Antagonist reversal studies are done in the same way except that (a) an agonist dose-response curve is done in the presence of a constant concentration of antagonist, or (b) an antagonist dose-response curve is done in the presence of a constant concentration of agonist.
A general note: GTPγS is a poorly hydrolysed GTP analogue; its binding reports G protein activation.
On to `CC(C)(C)c1nc2cc(S(=O)(=O)n3cc(C(=O)NC4CC4)cn3)ccc2n1CC1CCC(F)(F)CC1` [1-({2-tert-Butyl-1-[(4,4-difluorocyclohexyl)methyl]-1H-benzimidazol-5-yl}sulfonyl)-N-cyclopropyl-1H-pyrazole-4-carboxamide], for which the maximal response (Emax) (usually the greatest response seen or fitted, relative to the assay's reference) worked out at 122%.

In turn, `CC(C)NC(=O)c1cnn(S(=O)(=O)c2ccc3c(c2)nc(C(C)(C)C)n3CC2CCC(F)(F)CC2)c1` [1-({2-tert-Butyl-1-[(4,4-difluorocyclohexyl)methyl]-1H-benzimidazol-5-yl}sulfonyl)-N-isopropyl-1H-pyrazole-4-carboxamide] showed a maximal effect (Emax) of 125%.

The compound `CNC(=O)c1cnn(S(=O)(=O)c2ccc3c(c2)nc(C(C)(C)C)n3CC2CCC(F)(F)CC2)c1` [1-({2-tert-Butyl-1-[(4,4-difluorocyclohexyl)methyl]-1H-benzimidazol-5-yl}sulfonyl)-N-methyl-1H-pyrazole-4-carboxamide] registered an Emax of 118%.

Consider `CC(C)(C)c1nc2cc(S(=O)(=O)n3ccc(C(=O)NC4CC4)c3)ccc2n1CC1CCOCC1` [1-{[2-tert-Butyl-1-(tetrahydro-2H-pyran-4-ylmethyl)-1H-benzimidazol-5-yl]sulfonyl}-N-cyclopropyl-1H-pyrrole-3-carboxamide], for which the maximal response (Emax) was 142%.

Consider `CCNC(=O)c1ccn(S(=O)(=O)c2ccc3c(c2)nc(C(C)(C)C)n3CC2CCOCC2)c1` [1-{[2-tert-butyl-1-(tetrahydro-2H-pyran-4-ylmethyl)-1H-benzimidazol-5-yl]sulfonyl}-N-ethyl-1H-pyrrole-3-carboxamide], for which the maximum response (Emax) worked out at 138%.

In turn, `CC(C)(C)c1nc2cc(S(=O)(=O)N3CCOC(C(=O)NC4CC4)C3)ccc2n1CC1CCC(F)(F)CC1` (centres unmarked) [4-({2-tert-Butyl-1-[(4,4-difluorocyclohexyl)methyl]-1H-benzimidazol-5-yl}sulfonyl)-N-cyclopropylmorpholine-2-carboxamide] came in with a maximal effect (Emax) of 120%.

`CCNC(=O)[C@@H]1CN(S(=O)(=O)c2ccc3c(c2)nc(C(C)(C)C)n3CC2CCC(F)(F)CC2)CCO1` [(2S)-4-((2-tert-butyl-1-[(4,4-difluorocyclohexyl)methyl]-1H-benzimidazol-5-yl}sulfonyl)-N-ethylmorpholine-2-carboxamide]: the maximum response (Emax) is 156%.

Compound `CC(C)(C)c1nc2cc(S(=O)(=O)N3CCC[C@H](C(=O)NC4CC4)C3)ccc2n1CC1CCC(F)(F)CC1` [(3S)-1-({2-tert-Butyl-1-[(4,4-difluorocyclohexyl)methyl]-1H-benzimidazol-5-yl}sulfonyl)-N-cyclopropylpiperidine-3-carboxamide] gave an Emax of 136%.

In the case of `CCCNC(=O)[C@H]1CCCN(S(=O)(=O)c2ccc3c(c2)nc(C(C)(C)C)n3CC2CCC(F)(F)CC2)C1` [(3S)-1-({2-tert-Butyl-1-[(4,4-difluorocyclohexyl)methyl]-1H-benzimidazol-5-yl}sulfonyl)-N-propylpiperidine-3-carboxamide], the maximum response (Emax) was 134%.

Take `CCNC(=O)c1cnn(S(=O)(=O)c2ccc3c(c2)nc(C(C)(C)C)n3CC2CCOCC2)c1` [Example 27, 1-{[2-tert-Butyl-1-(tetrahydro-2H-pyran-4-ylmethyl)-1H-benzimidazol-5-yl]sulfonyl}-N-ethyl-1H-pyrazole-4-carboxamide]: the Emax was determined as 127%.

On to `CC(F)(F)c1nc2cc(S(=O)(=O)n3ccc(C(=O)NC4CC4)c3)ccc2n1CC1CCOCC1` [N-Cyclopropyl-1-{[2-(1,1-difluoroethyl)-1-(tetrahydro-2H-pyran-4-ylmethyl)-1H-benzimidazol-5-yl]sulfonyl}-1H-pyrrole-3-carboxamide], for which the Emax came to 119%.
